AC50 data for 14 compounds are collected here from ChEMBL document CHEMBL5291721, “A preclinical secondary pharmacology resource illuminates target-adverse drug reaction associations of marketed drugs” (Nat Commun, 2023).

One test addresses T1, Adenosine receptor A3 (Homo sapiens, UniProt P0DMS8).
T1 sequence (P0DMS8 whole entry): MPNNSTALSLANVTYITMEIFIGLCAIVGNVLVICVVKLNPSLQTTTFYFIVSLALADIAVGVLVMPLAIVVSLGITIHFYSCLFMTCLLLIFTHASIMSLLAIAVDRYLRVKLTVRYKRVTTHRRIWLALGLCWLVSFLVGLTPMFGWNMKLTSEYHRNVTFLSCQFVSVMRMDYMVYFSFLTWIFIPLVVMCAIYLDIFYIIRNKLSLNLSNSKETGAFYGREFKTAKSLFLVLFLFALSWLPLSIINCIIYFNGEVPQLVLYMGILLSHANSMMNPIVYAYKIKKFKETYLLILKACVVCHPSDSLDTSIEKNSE

In test [1] the target is T2, Muscarinic acetylcholine receptor M1 (Homo sapiens, UniProt P11229).
T2 sequence (P11229 whole entry): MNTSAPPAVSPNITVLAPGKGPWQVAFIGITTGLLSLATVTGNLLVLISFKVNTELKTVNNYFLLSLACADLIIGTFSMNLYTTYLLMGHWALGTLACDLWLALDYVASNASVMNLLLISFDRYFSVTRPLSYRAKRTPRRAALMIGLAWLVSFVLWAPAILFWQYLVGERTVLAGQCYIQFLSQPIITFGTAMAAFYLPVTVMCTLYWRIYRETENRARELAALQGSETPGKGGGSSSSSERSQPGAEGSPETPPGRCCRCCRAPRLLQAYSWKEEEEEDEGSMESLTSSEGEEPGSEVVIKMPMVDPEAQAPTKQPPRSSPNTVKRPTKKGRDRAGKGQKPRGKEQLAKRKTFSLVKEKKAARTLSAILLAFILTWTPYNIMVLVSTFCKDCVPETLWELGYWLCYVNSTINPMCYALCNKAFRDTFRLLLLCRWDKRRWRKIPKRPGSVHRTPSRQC
Type of test: functional, cell-based.

In another test the target is Prothrombin (Homo sapiens, UniProt P00734). It is filed as functional.
For test [2], the target named is T3, 5-hydroxytryptamine receptor 1A (Homo sapiens, UniProt P08908).
T3 sequence (P08908 whole entry): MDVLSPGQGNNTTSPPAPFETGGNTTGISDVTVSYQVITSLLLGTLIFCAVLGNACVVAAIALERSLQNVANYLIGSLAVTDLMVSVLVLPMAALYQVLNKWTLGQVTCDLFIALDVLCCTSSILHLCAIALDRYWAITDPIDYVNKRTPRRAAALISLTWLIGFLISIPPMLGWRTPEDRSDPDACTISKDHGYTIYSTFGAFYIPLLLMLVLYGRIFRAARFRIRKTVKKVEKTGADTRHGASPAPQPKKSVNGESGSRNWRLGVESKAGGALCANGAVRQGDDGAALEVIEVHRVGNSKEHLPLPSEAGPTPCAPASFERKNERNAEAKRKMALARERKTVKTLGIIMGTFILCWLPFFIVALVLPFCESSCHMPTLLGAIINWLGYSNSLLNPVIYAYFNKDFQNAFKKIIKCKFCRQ

Test [3] addresses 5-hydroxytryptamine receptor 2B (Homo sapiens, UniProt P41595). Type of test: functional, cell-based.
The target in test [4] is Vascular endothelial growth factor receptor 2 (Homo sapiens, UniProt P35968). Type of test: functional.
Sequence of Vascular endothelial growth factor receptor 2 (P35968 whole entry): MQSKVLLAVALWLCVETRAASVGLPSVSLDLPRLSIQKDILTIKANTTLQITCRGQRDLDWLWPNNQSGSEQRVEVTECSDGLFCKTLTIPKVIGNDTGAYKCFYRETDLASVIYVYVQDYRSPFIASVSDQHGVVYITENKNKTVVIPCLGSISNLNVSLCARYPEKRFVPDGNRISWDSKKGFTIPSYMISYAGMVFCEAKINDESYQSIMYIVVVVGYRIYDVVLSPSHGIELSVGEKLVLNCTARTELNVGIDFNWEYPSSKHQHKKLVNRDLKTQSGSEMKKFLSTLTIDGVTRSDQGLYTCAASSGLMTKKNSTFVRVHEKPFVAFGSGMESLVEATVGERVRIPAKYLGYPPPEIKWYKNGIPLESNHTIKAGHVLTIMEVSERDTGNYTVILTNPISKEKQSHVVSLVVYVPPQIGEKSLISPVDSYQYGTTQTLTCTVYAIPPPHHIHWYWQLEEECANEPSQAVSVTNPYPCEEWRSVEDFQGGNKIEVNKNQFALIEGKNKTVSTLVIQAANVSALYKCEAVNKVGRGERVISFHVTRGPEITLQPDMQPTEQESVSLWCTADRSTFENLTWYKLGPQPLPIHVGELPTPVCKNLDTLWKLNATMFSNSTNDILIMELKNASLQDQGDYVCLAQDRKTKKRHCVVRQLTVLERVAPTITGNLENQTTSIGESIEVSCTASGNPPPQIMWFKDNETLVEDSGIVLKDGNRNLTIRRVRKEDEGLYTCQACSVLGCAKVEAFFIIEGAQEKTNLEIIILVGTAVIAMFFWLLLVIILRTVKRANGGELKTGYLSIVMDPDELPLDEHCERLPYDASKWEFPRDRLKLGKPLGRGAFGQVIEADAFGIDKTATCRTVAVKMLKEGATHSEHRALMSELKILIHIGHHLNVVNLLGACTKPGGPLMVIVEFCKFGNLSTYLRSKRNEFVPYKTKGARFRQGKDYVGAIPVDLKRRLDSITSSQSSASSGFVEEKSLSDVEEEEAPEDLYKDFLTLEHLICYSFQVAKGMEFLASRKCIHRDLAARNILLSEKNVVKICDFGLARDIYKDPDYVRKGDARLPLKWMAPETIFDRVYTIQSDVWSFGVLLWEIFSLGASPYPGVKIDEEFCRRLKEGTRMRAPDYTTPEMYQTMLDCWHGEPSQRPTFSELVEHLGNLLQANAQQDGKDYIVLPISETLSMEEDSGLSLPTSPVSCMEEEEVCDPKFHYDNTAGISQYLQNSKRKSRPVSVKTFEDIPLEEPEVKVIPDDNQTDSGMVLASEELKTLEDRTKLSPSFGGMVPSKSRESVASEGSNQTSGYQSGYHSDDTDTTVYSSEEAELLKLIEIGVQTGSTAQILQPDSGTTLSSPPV
For the next test, the target named is T4, Progesterone receptor (Homo sapiens, UniProt P06401).
T4 sequence (P06401 whole entry): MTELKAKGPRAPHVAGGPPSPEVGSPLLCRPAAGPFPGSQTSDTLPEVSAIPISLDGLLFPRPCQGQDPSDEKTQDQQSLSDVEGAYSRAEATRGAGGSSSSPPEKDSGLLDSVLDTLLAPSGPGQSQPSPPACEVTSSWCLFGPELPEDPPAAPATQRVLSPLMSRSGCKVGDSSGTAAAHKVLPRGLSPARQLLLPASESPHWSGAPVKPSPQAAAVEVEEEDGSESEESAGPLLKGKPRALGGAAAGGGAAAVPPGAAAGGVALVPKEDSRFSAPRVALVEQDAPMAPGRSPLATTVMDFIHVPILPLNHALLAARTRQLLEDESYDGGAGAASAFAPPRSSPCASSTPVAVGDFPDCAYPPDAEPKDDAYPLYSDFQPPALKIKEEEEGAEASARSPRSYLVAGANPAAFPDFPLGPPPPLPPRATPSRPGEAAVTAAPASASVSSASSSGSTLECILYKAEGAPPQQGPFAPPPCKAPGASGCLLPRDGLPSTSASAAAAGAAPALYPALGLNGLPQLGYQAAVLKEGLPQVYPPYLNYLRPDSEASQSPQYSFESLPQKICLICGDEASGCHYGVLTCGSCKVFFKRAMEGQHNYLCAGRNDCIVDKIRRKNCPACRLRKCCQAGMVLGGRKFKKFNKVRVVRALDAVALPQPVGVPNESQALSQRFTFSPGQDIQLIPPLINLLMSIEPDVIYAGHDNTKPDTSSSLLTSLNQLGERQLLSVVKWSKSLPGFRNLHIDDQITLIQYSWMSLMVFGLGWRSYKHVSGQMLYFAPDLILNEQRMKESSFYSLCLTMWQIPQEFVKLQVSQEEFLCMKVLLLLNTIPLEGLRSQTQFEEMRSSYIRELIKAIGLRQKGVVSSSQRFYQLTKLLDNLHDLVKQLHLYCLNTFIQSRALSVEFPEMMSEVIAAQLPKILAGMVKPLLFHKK

Test [5] deals with T5, Thromboxane A2 receptor (Homo sapiens, UniProt P21731).
T5 sequence (P21731 whole entry): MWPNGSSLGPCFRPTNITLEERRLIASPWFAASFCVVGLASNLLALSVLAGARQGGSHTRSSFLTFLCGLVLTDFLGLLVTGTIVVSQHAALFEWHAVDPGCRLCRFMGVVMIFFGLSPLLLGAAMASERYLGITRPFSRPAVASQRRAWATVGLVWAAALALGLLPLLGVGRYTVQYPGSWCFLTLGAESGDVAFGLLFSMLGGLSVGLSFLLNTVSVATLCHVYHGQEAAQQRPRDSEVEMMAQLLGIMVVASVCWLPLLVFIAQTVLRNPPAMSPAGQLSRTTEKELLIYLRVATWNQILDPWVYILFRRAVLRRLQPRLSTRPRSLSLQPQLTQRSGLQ
Type of test: functional, cell-based.

Test [6] deals with T5, Thromboxane A2 receptor. It is filed as functional, cell-based. The source holds these as a separate data set.

Some results are limits rather than exact numbers.

The term AC50 denotes the midpoint of the concentration-response curve, whichever way the signal moves. Read a high AC50 as weaker potency.
Also: assay procedure not described here.

Sequence of 5-hydroxytryptamine receptor 2B (P41595 whole entry): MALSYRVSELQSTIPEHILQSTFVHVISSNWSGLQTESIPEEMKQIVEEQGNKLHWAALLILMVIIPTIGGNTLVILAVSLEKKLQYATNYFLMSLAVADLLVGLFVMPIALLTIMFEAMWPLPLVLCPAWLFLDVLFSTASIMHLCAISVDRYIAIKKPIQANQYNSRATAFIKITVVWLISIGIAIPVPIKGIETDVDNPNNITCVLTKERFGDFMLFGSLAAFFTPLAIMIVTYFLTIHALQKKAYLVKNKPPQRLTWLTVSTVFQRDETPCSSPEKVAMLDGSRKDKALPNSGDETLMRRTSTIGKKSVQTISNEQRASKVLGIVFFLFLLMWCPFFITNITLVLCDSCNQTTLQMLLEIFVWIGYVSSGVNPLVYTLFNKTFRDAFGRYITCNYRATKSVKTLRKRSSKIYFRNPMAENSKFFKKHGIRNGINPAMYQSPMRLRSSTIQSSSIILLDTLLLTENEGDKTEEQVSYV

Take `CC(C)(C)CC(C)(C)c1ccc(O)c(Cc2ccc(Cl)cc2Cl)c1` [CLOFOCTOL]: the AC50 at Adenosine receptor A3 is 1.12 µM; in test [1], above 30 µM; on Prothrombin it was above 30 µM; in test [2], above 30 µM; in test [3], above 30 µM; in [4], above 30 µM. Besides, the figures for the AC50 at Progesterone receptor, at Thromboxane A2 receptor [5] and at Thromboxane A2 receptor [6] were 1.15 µM, above 30 µM and above 30 µM, respectively.
With `CCN(CC)CCNc1ccc(CO)c2sc3ccccc3c(=O)c12` [HYCANTHONE], the concentration at half-maximal activity (AC50) at Adenosine receptor A3 was above 30 µM; in test [1], above 30 µM; at Prothrombin, above 30 µM; in test [2] it was 7.25 µM; in test [3] it was above 30 µM; in test [4], above 30 µM. For the same compound, the AC50 is above 30 µM on Progesterone receptor, above 30 µM at Thromboxane A2 receptor [5] and 23.1 µM at Thromboxane A2 receptor [6].
For the compound `CC(=O)Oc1c(C)c(C)c2c(c1C)CC[C@@](C)(CCC[C@H](C)CCC[C@H](C)CCCC(C)C)O2`, the AC50 (at Adenosine receptor A3; in test [1]; on Prothrombin; in [2]; in test [3]; in test [4]) was above 30 µM in each case. The AC50 on Progesterone receptor, at Thromboxane A2 receptor [5] and on Thromboxane A2 receptor [6] was above 30 µM each time.
`CC[C@@H](C(N)=O)N1CCCC1=O`: the AC50 (at Adenosine receptor A3; in test [1]; on Prothrombin; in [2]; in [3]; in test [4]) was above 30 µM in each case. In addition, the concentration at half-maximal activity (AC50) at Progesterone receptor, on Thromboxane A2 receptor [5] and at Thromboxane A2 receptor [6] was above 30 µM in each case.
As for `CC(=O)[C@@]1(O)CC[C@H]2[C@@H]3C=C(C)C4=CC(=O)CC[C@]4(C)[C@H]3CC[C@@]21C`, the AC50 (at Adenosine receptor A3; in [1]; on Prothrombin; in test [2]; in test [3]; in test [4]) was above 30 µM each time. Further, the figures for the concentration at half-maximal activity (AC50) at Progesterone receptor, at Thromboxane A2 receptor [5] and on Thromboxane A2 receptor [6] were 0.285 µM, above 30 µM and above 30 µM, respectively.
For the compound `O=C(Nc1ccc(Cl)cc1)Nc1ccc(Cl)c(Cl)c1` [TRICLOCARBAN], the AC50 on Adenosine receptor A3 is 2.08 µM; in test [1], above 30 µM; on Prothrombin, above 30 µM; in test [2] it was above 30 µM; in test [3], above 30 µM; in [4] it was above 30 µM. Moreover, the concentration at half-maximal activity (AC50) on Progesterone receptor, on Thromboxane A2 receptor [5] and at Thromboxane A2 receptor [6] was above 30 µM throughout.
Regarding `CCN(CC)CCc1nc(-c2ccccc2)no1` [OXOLAMINE], the AC50 at Adenosine receptor A3 was above 30 µM; in test [1], above 30 µM; at Prothrombin it was above 30 µM; in [2], 15.5 µM; in test [3], above 30 µM; in test [4], above 30 µM. Moreover, the AC50 on Progesterone receptor, on Thromboxane A2 receptor [5] and at Thromboxane A2 receptor [6] was above 30 µM in each case.
With `CC(C)(C)C(=O)C(Oc1ccc(Cl)cc1)n1ccnc1` (centres undefined) [CLIMBAZOLE], the AC50 is 20.2 µM on Adenosine receptor A3; above 30 µM in test [1]; above 30 µM on Prothrombin; above 30 µM in test [2]; above 30 µM in test [3]; above 30 µM in test [4]. In addition, the AC50 on Progesterone receptor, at Thromboxane A2 receptor [5] and at Thromboxane A2 receptor [6] was above 30 µM throughout.
In the case of `NC(=O)C[C@H](N)C(=O)O` [ASPARAGINE], the AC50 (at Adenosine receptor A3; in test [1]; at Prothrombin; in [2]; in test [3]; in test [4]) was above 30 µM throughout. Also, the half-maximal activity concentration (AC50) on Progesterone receptor, at Thromboxane A2 receptor [5] and on Thromboxane A2 receptor [6] was above 30 µM each time.
Take `OC[C@@H](O)[C@H](O)[C@@H](O)CO` [XYLITOL]: the AC50 (at Adenosine receptor A3; in [1]; at Prothrombin; in test [2]; in [3]; in test [4]) was above 30 µM each time. The AC50 at Progesterone receptor, on Thromboxane A2 receptor [5] and at Thromboxane A2 receptor [6] was above 30 µM each time.
`N[C@H]1C(O)O[C@H](CO)[C@@H](O)[C@@H]1O` (some centres undefined) [GLUCOSAMINE]: the AC50 (on Adenosine receptor A3; in test [1]; on Prothrombin; in [2]; in test [3]; in [4]) was above 30 µM each time. Also, the AC50 at Progesterone receptor, at Thromboxane A2 receptor [5] and at Thromboxane A2 receptor [6] was above 30 µM each time.
Take `CCOc1ccccc1C(N)=O` [ETHENZAMIDE]: the half-maximal activity concentration (AC50) (at Adenosine receptor A3; in [1]; at Prothrombin; in [2]; in test [3]; in test [4]) was above 30 µM each time. The AC50 at Progesterone receptor, at Thromboxane A2 receptor [5] and at Thromboxane A2 receptor [6] was above 30 µM in each case.
Consider `NNc1nnc(NN)c2ccccc12` [DIHYDRALAZINE], for which the half-maximal activity concentration (AC50) is 0.197 µM on Adenosine receptor A3; above 30 µM in test [1]; above 30 µM at Prothrombin; above 30 µM in [2]; above 30 µM in test [3]; above 30 µM in test [4]. For the same compound, the concentration at half-maximal activity (AC50) on Thromboxane A2 receptor [5] and on Thromboxane A2 receptor [6] was above 30 µM in each case.
Turning to `Nc1ccc2cc3ccc(N)cc3nc2c1` [PROFLAVINE], the AC50 on Adenosine receptor A3 is 10.2 µM; in test [1] it was above 0.3 µM; on Prothrombin, 9.65 µM; in test [2], 17.2 µM; in test [3], above 30 µM; in test [4], 25.8 µM. Further, the AC50 at Progesterone receptor was above 30 µM; at Thromboxane A2 receptor [5], above 0.3 µM.
